Among the test systems are SF-268 CNS; HCT-15 colon; SNB-75 CNS; MDA-N; NCI-H23 lung; SW-620 colon; SK-MEL-2 melanoma; MALME-3M melanoma; HT29 colon; LOX IMVI melanoma.
Holding throughout (assay): inhibition of tumour cell growth, NCI panel, 48 h

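Five concentrations, 48 hours, 96-well plates. TGI denotes the concentration required for complete inhibition of growth.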 Where a SMILES comes first, the peptide text is derived from it. Square brackets hold non-standard residues; d marks the D form. Peptide text beside a SMILES is read from it. [ ]: non-standard residue; d: D form. The star is where a group is joined. ξ: configuration not given here. Phe(4-NO2) = N[CH](Cc1ccc([N+](=O)[O-])cc1)C(=O)O; ξPhe(4-NO2) = NC(Cc1ccc([N+](=O)[O-])cc1)C(=O)O; Boc = CC(C)(C)OC(=O)*

As for `C/C(=N\Nc1nc2ccccc2o1)c1cc2ccccc2cn1`, the TGI in the experiment with SF-268 CNS was 2.82 µM; in the experiment on HCT-15 colon, greater than 20.3 µM; in the experiment with SNB-75 CNS, 3.7 µM; in the experiment on MDA-N, 35.3 µM; in the experiment with NCI-H23 lung it was 8.3 µM; with SW-620 colon, greater than 100 µM. For the same compound, the values for the TGI in the experiment on SK-MEL-2 melanoma and in the experiment with MALME-3M melanoma were 12.2 µM and 5.51 µM, respectively.

On to `CCNC(=O)CNC(=O)C(Cc1ccc([N+](=O)[O-])cc1)NC(=O)OC(C)(C)C` (centres undefined) (Boc-[ξPhe(4-NO2)]-Gly-NHEt), for which the TGI in the experiment on SF-268 CNS, in the experiment with HCT-15 colon, in the experiment with SNB-75 CNS, in the experiment with HT29 colon, with MDA-N and in the experiment with NCI-H23 lung was greater than 100 µM each time. For the same compound, the TGI with SW-620 colon, in the experiment with LOX IMVI melanoma and in the experiment on MALME-3M melanoma was greater than 100 µM in each case.

Take `N[C@@H](Cc1ccc2oc3cc(=O)c4ccccc4c-3nc2c1)C(=O)O`: the TGI is greater than 100 µM in the experiment on SF-268 CNS; greater than 100 µM with HCT-15 colon; greater than 100 µM with SNB-75 CNS; 96.8 µM in the experiment on HT29 colon; 38.2 µM in the experiment on MDA-N; 51.3 µM in the experiment on NCI-H23 lung. Further, the TGI with SW-620 colon is greater than 100 µM; in the experiment with LOX IMVI melanoma, greater than 100 µM; in the experiment on MALME-3M melanoma, 11.2 µM.

As for `COC(=O)CCC(NC(=O)C(CCC(=O)OC)NC(=O)C(CCC(=O)OC)NC(=O)C(CCC(=O)OC)NC(=O)C(CCC(=O)OC)NC(=O)C(Cc1ccc([N+](=O)[O-])cc1)NC(=O)C(CCC(=O)OC)NC(=O)C(CCC(=O)OC)NC(=O)C(CCC(=O)OC)NC(=O)C(CCC(=O)OC)NC(=O)C(CCC(=O)OC)NC(C)=O)C(N)=O` (centres undefined) (Ac-E(OMe)E(OMe)E(OMe)E(OMe)E(OMe)[Phe(4-NO2)]E(OMe)E(OMe)E(OMe)E(OMe)E(OMe)-NH2; configuration not given here), the TGI with SF-268 CNS, in the experiment with SNB-75 CNS, with HT29 colon, in the experiment with MDA-N, with NCI-H23 lung and in the experiment on SW-620 colon was greater than 100 µM each time. Besides, the TGI in the experiment with SK-MEL-2 melanoma, with LOX IMVI melanoma and in the experiment on MALME-3M melanoma was greater than 100 µM throughout.

Turning to `COc1cc(C(=O)N(C(=S)OC23CC4CC(CC(C4)C2)C3)c2ccccc2)cc(OC)c1OC`, the TGI is greater than 100 µM with SF-268 CNS; greater than 100 µM in the experiment on HCT-15 colon; greater than 100 µM in the experiment with SNB-75 CNS; 41.8 µM in the experiment on HT29 colon; 85.8 µM in the experiment on MDA-N; greater than 100 µM with NCI-H23 lung. The TGI is greater than 100 µM in the experiment on SW-620 colon, 32.1 µM in the experiment with SK-MEL-2 melanoma and 82.1 µM in the experiment with MALME-3M melanoma.

For `COc1ccc(NC(=S)Nc2c(C)n(C)n(-c3ccccc3)c2=O)cc1`, the TGI in the experiment on SF-268 CNS, in the experiment with HCT-15 colon, in the experiment with SNB-75 CNS, in the experiment with HT29 colon, in the experiment with MDA-N and in the experiment with NCI-H23 lung was greater than 100 µM in each case. For the same compound, the TGI with SW-620 colon, with LOX IMVI melanoma and in the experiment on MALME-3M melanoma was greater than 100 µM each time.

Consider `OC1(C2(c3ccc(Cl)cc3)CCCC2)c2ccccc2C2=NCCN21` (centres undefined), for which the TGI in the experiment with SF-268 CNS was determined as 35.1 µM; in the experiment with HCT-15 colon it was 31 µM; in the experiment on SNB-75 CNS, 12.7 µM; with HT29 colon, 23.5 µM; with MDA-N, 29.7 µM; in the experiment on NCI-H23 lung, 36.1 µM. In addition, the TGI with SW-620 colon was 48.6 µM; with LOX IMVI melanoma, 28.3 µM; with MALME-3M melanoma, 34.7 µM.

Take `NS(=O)(=O)c1nnc(NC(=O)/C=C/C(=O)O)s1`: the TGI with SF-268 CNS, in the experiment on HCT-15 colon, in the experiment on HT29 colon, in the experiment on MDA-N, in the experiment with NCI-H23 lung and with SW-620 colon was greater than 100 µM throughout. Also, the TGI with SK-MEL-2 melanoma, in the experiment on LOX IMVI melanoma and with MALME-3M melanoma was greater than 100 µM throughout.

Regarding `COc1ccc2[nH]c3c(C)c4ncccc4c(C)c3c2c1`, the TGI with SF-268 CNS was greater than 10 µM; in the experiment on HCT-15 colon, greater than 10 µM; with SNB-75 CNS, greater than 10 µM; in the experiment on HT29 colon, 6.98 µM; in the experiment on MDA-N it was greater than 10 µM; with NCI-H23 lung, greater than 10 µM. Further, the TGI in the experiment with SW-620 colon is 4.26 µM; in the experiment with SK-MEL-2 melanoma, greater than 10 µM; with MALME-3M melanoma, 3.42 µM.

`OC[C@@H](O)[C@H](O)[C@@H](O)/C=N/Nc1ccc(Cl)nn1`: the TGI with SF-268 CNS, with HCT-15 colon, in the experiment with HT29 colon, in the experiment on MDA-N, with NCI-H23 lung and with SW-620 colon was greater than 100 µM throughout. The TGI with SK-MEL-2 melanoma, in the experiment on LOX IMVI melanoma and in the experiment with MALME-3M melanoma was greater than 100 µM throughout.

Consider `Clc1nc(Nc2nc3ccccc3[nH]2)nc(Cl)c1-c1ccccc1`, for which the TGI in the experiment with SF-268 CNS was greater than 100 µM; in the experiment with HCT-15 colon it was 34.2 µM; with SNB-75 CNS, 39.7 µM; with HT29 colon it was 34.9 µM; in the experiment on MDA-N, 23.7 µM; in the experiment with NCI-H23 lung, 58.4 µM. The TGI is 35.6 µM in the experiment on SW-620 colon, 55.9 µM in the experiment with SK-MEL-2 melanoma and 38.6 µM with MALME-3M melanoma.

In the case of `CCNC1=C(NC(=O)CCl)C(=O)c2ccccc2C1=O`, the TGI in the experiment with SF-268 CNS was 32.8 µM; in the experiment on HCT-15 colon, 33.6 µM; in the experiment with SNB-75 CNS it was greater than 10 µM; in the experiment with HT29 colon it was greater than 10 µM; with MDA-N, 29.2 µM; with NCI-H23 lung, 36 µM. For the same compound, the TGI in the experiment on SW-620 colon is 74.6 µM; with MALME-3M melanoma, 34.9 µM.

Regarding `NC(Cc1ccc(O)cn1)C(=O)O` (centres undefined), the TGI in the experiment with SF-268 CNS, with HCT-15 colon, with SNB-75 CNS, in the experiment on HT29 colon, in the experiment on MDA-N and in the experiment on NCI-H23 lung was greater than 100 µM throughout. The TGI in the experiment with SW-620 colon, in the experiment on LOX IMVI melanoma and in the experiment on MALME-3M melanoma was greater than 100 µM in each case.

Consider `C=C(C1=CC(=O)C(C)(C)O1)[C@@H]1CC=C([C@@H]2CC[C@H]3[C@@]2(C)CC[C@H]2C(C)(C)C(=O)[C@H](OC(=O)CC(C)(O)CC(=O)O)C[C@]32C)[C@H](O)O1` (some centres undefined), for which the TGI with SF-268 CNS stood at 24.4 µM; in the experiment on HCT-15 colon it was 24.9 µM; with HT29 colon, 34.4 µM; in the experiment with MDA-N, 30.5 µM; with NCI-H23 lung it was 27.5 µM; with SW-620 colon, 25.4 µM. For the same compound, the values for the TGI in the experiment on SK-MEL-2 melanoma, in the experiment on LOX IMVI melanoma and with MALME-3M melanoma were 26.7 µM, 25.9 µM and 28 µM, respectively.

The values above are taken from PubChem BioAssay (NCI).
